Assay results published in patent publication US7452997B2 (priority 2004, dated 2008).

Target: T1, human CB1 receptor (Homo sapiens, UniProt P21554)
T1 construct: expressed in transfected cells; host or cells: SK-N-MC cells, stably transfected with pcDNA3 CB-1 (human); semi-purified membrane pellet
Test: biochemical
Assay type: binding
Details: not given
Procedure: (§1) Binding Assay for CB1 or CB2 Agonists or Inverse Agonists
(§2) The human CB1 and CB2 receptors were stably expressed in SK-N-MC cells transfected with pcDNA3 CB-1 (human) or pcDNA3 CB-2 (human). The cells were grown in T-180 cell culture flasks under standard cell culture conditions at 37° C. in a 5% CO2 atmosphere. The cells were harvested by trysinization and homogenized in a homogenization buffer (10 mM Tris, 0.2 mM MgCl2, 5 mM KCl, with protease inhibitors aprotinin, leupeptin, pepstatin A and bacitracin) and centrifuged (2000 g). The supernatant was then centrifuged in 2M sucrose (31,300 g) to produce a semi-purified membrane pellet. The pellet was resuspended in homogenization and store at −80° C.
On the day of the assay, the pellet was thawed on ice and diluted in assay buffer (50 mM Tris-HCl, 5 mM MgCl2, 2.5 mM EDTA, 0.5 mg/mL fatty acid free bovine serum albumin, pH 7.5). […] The plate was covered and incubated for 90 minutes at 30° C. The contents were then aspirated onto a Packard […] GF/C filter bottom plate prewet with 0.5% polyethyleneimine. The wells of the polypropylene plate were rinsed and aspirated seven times with a 0.9% saline-0.5% TWEEN 20 solution. The […] plate was dried, a scintillation cocktail was added to each well and the counts representing binding were quantitated in a TOPCOUNT scintillation counter.
(§3) The IC50 binding values for compounds tested were calculated by linear regression and were obtained from studies in which varying compound concentrations were used.

T1 sequence (P21554 whole entry): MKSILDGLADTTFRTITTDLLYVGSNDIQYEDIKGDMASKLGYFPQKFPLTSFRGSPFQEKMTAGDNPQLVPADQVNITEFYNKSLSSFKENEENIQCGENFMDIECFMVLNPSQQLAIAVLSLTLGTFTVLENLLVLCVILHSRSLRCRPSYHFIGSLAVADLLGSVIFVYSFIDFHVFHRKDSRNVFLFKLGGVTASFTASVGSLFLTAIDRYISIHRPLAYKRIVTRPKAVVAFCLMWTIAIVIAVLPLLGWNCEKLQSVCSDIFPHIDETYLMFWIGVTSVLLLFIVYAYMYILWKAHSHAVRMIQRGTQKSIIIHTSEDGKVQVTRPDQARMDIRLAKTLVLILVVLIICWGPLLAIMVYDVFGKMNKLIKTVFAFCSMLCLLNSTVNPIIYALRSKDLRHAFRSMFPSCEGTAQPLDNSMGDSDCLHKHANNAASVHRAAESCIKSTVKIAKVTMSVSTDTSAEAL

Point of comparison: `O=C(NN1CCCC1)c1nn(-c2ccc(Cl)cc2Cl)c2c1CCCC2=Cc1cccs1` [compound 345], IC50 70 nM. Against it:
- CC(c1ccccc1)n1nc(C(=O)N[C@@H](C)C2CCCCC2)c2c1CCCC2 (mixture of isomers) [Cpd 249, 1-(1-phenyl-ethyl)-4,5,6,7-tetrahydro-1H-indazole-3-carboxylic acid [(1S)-1-cyclohexyl-ethyl]-amide] — within 1.5-fold, 50 nM
- CC12CCC(C1)C(C)(C)C2NC(=O)c1nn(C2CCCCC2)c2c1CC(=O)CC2 (stereo not drawn) [Cpd 96, 1-cyclohexyl-5-oxo-4,5,6,7-tetrahydro-1H-indazole-3-carboxylic acid (1,3,3-trimethyl-bicyclo[2.2.1]hept-2-yl)-amide] — 140-fold higher, 9500 nM
- O=C(NC(Cc1ccc(OCc2ccccc2)cc1)C(=O)O)c1nn(Cc2ccccc2)c2c1CCCC2 (stereo not drawn) [compound 76] — 28-fold higher, 1960 nM
- CC(C)(C)OC(=O)NC1CCc2nn(C3CCCCC3)c(C(=O)NC3C4CC5CC(C4)CC3C5)c2C1 (stereo not drawn) [compound 84] — 5.7-fold higher, 400 nM
- O=C(NC1C2CC3CC(C2)CC1C3)c1nn(C2CCCCC2)c2c1CC(C(=O)Nn1cnnc1)CC2 (stereo not drawn) [compound 95] — 91-fold higher, 6400 nM
- CC(C)(C)C1CCc2c(c(C(=O)NC3C4CC5CC(C4)CC3C5)nn2C2CCCCC2)C1 (stereo not drawn) [compound 98] — 290-fold higher, 20500 nM
- CC(C)(C)C1CCc2c(c(C(=O)NCC34CC5CC(CC(C5)C3)C4)nn2C2CCCCC2)C1 (stereo not drawn) [compound 102] — 440-fold higher, 30900 nM
- CN(C(=O)NC1CCc2c(c(C(=O)NC3C4CC5CC(C4)CC3C5)nn2C2CCCCC2)C1)c1ccccc1 (stereo not drawn) [compound 103] — 29-fold higher, 2000 nM
- Cc1ccc(S(=O)(=O)NC2CCc3c(c(C(=O)NC4C5CC6CC(C5)CC4C6)nn3C3CCCCC3)C2)cc1 (stereo not drawn) [compound 105] — 120-fold higher, 8500 nM
- CN(C)S(=O)(=O)NC1CCc2c(c(C(=O)NC3C4CC5CC(C4)CC3C5)nn2C2CCCCC2)C1 (stereo not drawn) [compound 106] — 180-fold higher, 12700 nM
- O=C(N[C@@H]1C2CCC(C2)[C@@H]1COCc1ccccc1Br)c1nn(C2CCCCC2)c2c1CCCC2 (stereo partly drawn) [compound 108] — 34-fold higher, 2400 nM
- O=C(NC1CCCCCCC1)c1nn(C2CCCCC2)c2c1CCCC2 [compound 128] — 7-fold lower, 10 nM
- O=C(NCCN1CCOCC1)c1nn(Cc2ccccc2)c2c1CCCC2 [compound 175] — 31-fold higher, 2160 nM
- C[C@H](NC(=O)c1nn(-c2ccc(Cl)cc2Cl)c2c1CCCC2=Cc1ccc(F)cc1)c1ccccc1 [compound 308] — 3.7-fold lower, 19 nM
- O=C(NN1CCCCCC1)c1nn(-c2ccc(Cl)cc2Cl)c2c1CCCC2=Cc1ccc(F)cc1 [compound 339] — 8.8-fold lower, 8 nM
- C[C@@H](NC(=O)c1nn(-c2ccc(Cl)cc2Cl)c2c1CCCC2=Cc1cccs1)C1CCCCC1 [compound 341] — 3.5-fold lower, 20 nM
- O=C(NN1CCCCC1)c1nn(-c2ccc(Cl)cc2Cl)c2c1CCCC2=Cc1cccs1 [compound 342] — 1.7-fold lower, 41 nM
- O=C(NN1CCCCCC1)c1nn(-c2ccc(Cl)cc2Cl)c2c1CCCC2=Cc1cccs1 [compound 343] — 1.9-fold lower, 37 nM
- CC1CCCC(C)N1NC(=O)c1nn(-c2ccc(Cl)cc2Cl)c2c1CCCC2=Cc1cccs1 (stereo not drawn) [compound 344] — within 1.5-fold, 53 nM
- O=C(NN1CC2CCCC2C1)c1nn(-c2ccc(Cl)cc2Cl)c2c1CCCC2=Cc1cccs1 (stereo not drawn) [compound 346] — 2.1-fold lower, 33 nM
- O=C(NN1CCCCC1)c1nn(-c2ccc(Cl)cc2Cl)c2c1CCCC2=Cc1ccsc1 [compound 347] — 3.9-fold lower, 18 nM
- O=C(NN1CCCCCC1)c1nn(-c2ccc(Cl)cc2Cl)c2c1CCC/C2=C\c1ccsc1 [compound 348] — 6.4-fold lower, 11 nM
- CC1CCCC(C)N1NC(=O)c1nn(-c2ccc(Cl)cc2Cl)c2c1CCC/C2=C\c1ccsc1 (stereo not drawn) [compound 349] — 1.8-fold lower, 40 nM
- O=C(NN1CC2CCCC2C1)c1nn(-c2ccc(Cl)cc2Cl)c2c1CCC/C2=C\c1ccsc1 (stereo not drawn) [compound 350] — 4.1-fold lower, 17 nM
- C[C@@H](NC(=O)c1nn(-c2ccc(Cl)cc2Cl)c2c1CCCC2=Cc1ccsc1)C1CCCCC1 [compound 351] — 5.8-fold lower, 12 nM
- C[C@@H](NC(=O)c1nn(-c2ccc(Cl)cc2Cl)c2c1CCC/C2=C\c1ccsc1)c1ccccc1 [compound 353] — 4.4-fold lower, 16 nM
- O=C(N[C@H](CO)c1ccccc1)c1nn(-c2ccc(Cl)cc2Cl)c2c1CCCC2=Cc1ccsc1 [compound 356] — within 1.5-fold, 77 nM
- O=C(NN1CCCC1)c1nn(-c2ccc(Cl)cc2Cl)c2c1CCCC2=Cc1ccsc1 [compound 357] — 3.3-fold lower, 21 nM
- C[C@@H](NC(=O)c1nn(-c2ccc(Cl)cc2Cl)c2c1CCC/C2=C\c1ccoc1)c1ccccc1 [compound 358] — 5.4-fold lower, 13 nM
- C[C@@H](NC(=O)c1nn(-c2ccc(Cl)cc2Cl)c2c1CCCC2=Cc1ccoc1)C1CCCCC1 [compound 360] — 5.8-fold lower, 12 nM
- CC1CCCC(C)N1NC(=O)c1nn(-c2ccc(Cl)cc2Cl)c2c1CCCC2=Cc1ccoc1 (stereo not drawn) [compound 362] — 1.8-fold lower, 38 nM
- O=C(NN1CCCCCC1)c1nn(-c2ccc(Cl)cc2Cl)c2c1CCC/C2=C\c1ccoc1 [compound 363] — 5.4-fold lower, 13 nM
- O=C(NN1CCCCC1)c1nn(-c2ccc(Cl)cc2Cl)c2c1CCC/C2=C\c1ccoc1 [compound 364] — 4.4-fold lower, 16 nM
- O=C(NN1CC2CCCC2C1)c1nn(-c2ccc(Cl)cc2Cl)c2c1CCC/C2=C\c1ccoc1 (stereo not drawn) [compound 365] — 4.4-fold lower, 16 nM
- O=C(NN1CCCC1)c1nn(-c2ccc(Cl)cc2Cl)c2c1CCCC2=Cc1ccoc1 [compound 368] — 1.8-fold lower, 39 nM
- C[C@@H](NC(=O)c1nn(-c2ccc(Cl)cc2Cl)c2c1CCCC2=Cc1ccco1)c1ccccc1 [compound 371] — 1.8-fold lower, 39 nM
- O=C(NN1CCCCCC1)c1nn(-c2ccc(Cl)cc2Cl)c2c1CCCC2=Cc1ccco1 [compound 373] — 3.5-fold lower, 20 nM
- O=C(NN1CCCCC1)c1nn(-c2ccc(Cl)cc2Cl)c2c1CCC/C2=C\c1ccco1 [compound 374] — 3.7-fold lower, 19 nM
- O=C(NN1CC2CCCC2C1)c1nn(-c2ccc(Cl)cc2Cl)c2c1CCC/C2=C\c1ccco1 (stereo not drawn) [compound 376] — 4.4-fold lower, 16 nM
- O=C(NN1CCCC1)c1nn(-c2ccc(Cl)cc2Cl)c2c1CCC/C2=C\c1ccco1 [compound 377] — 1.6-fold lower, 43 nM
- O=C(NN1CC2CCCC2C1)c1nn(-c2ccc(Cl)cc2Cl)c2c1CCCC2=Cc1ccc(Br)cc1 (stereo not drawn) [compound 380] — 2.2-fold lower, 32 nM
- C[C@@H](NC(=O)c1nn(-c2ccc(Cl)cc2Cl)c2c1CCC/C2=C\c1ccc(Br)cc1)c1ccccn1 [compound 381] — 4.7-fold lower, 15 nM
- C[C@@H](NC(=O)c1nn(-c2ccc(Cl)cc2Cl)c2c1CCCC2=Cc1ccc(Br)cc1)C1CCCCC1 [compound 382] — 14-fold lower, 5 nM
- C[C@@H](NC(=O)c1nn(-c2ccc(Cl)cc2Cl)c2c1CCCC2=Cc1ccc(Br)cc1)c1ccccc1 [compound 383] — 7-fold lower, 10 nM
- O=C(NN1CCCCC1)c1nn(-c2ccc(Cl)cc2Cl)c2c1CCC/C2=C\c1ccc(Br)cc1 [compound 384] — 3.3-fold lower, 21 nM
- C[C@@H](NC(=O)c1nn(-c2ccc(Cl)cc2Cl)c2c1CCCC2=Cc1ccc(Cl)s1)C1CCCCC1 [compound 385] — 10-fold lower, 7 nM
- C[C@@H](NC(=O)c1nn(-c2ccc(Cl)cc2Cl)c2c1CCC/C2=C\c1ccc(Cl)s1)c1ccccc1 [compound 386] — 6.4-fold lower, 11 nM
- O=C(NN1CCCCC1)c1nn(-c2ccc(Cl)cc2Cl)c2c1CCC/C2=C\c1ccc(Cl)s1 [compound 387] — 2.1-fold lower, 33 nM
- O=C(NN1CCCCCC1)c1nn(-c2ccc(Cl)cc2Cl)c2c1CCC/C2=C\c1ccc(Cl)s1 [compound 388] — 4.7-fold lower, 15 nM
- CC1CCCC(C)N1NC(=O)c1nn(-c2ccc(Cl)cc2Cl)c2c1CCC/C2=C\c1ccc(Cl)s1 (stereo not drawn) [compound 389] — 5-fold lower, 14 nM
- O=C(NN1CC2CCCC2C1)c1nn(-c2ccc(Cl)cc2Cl)c2c1CCC/C2=C\c1ccc(Cl)s1 (stereo not drawn) [compound 390] — 3.5-fold lower, 20 nM
- O=C(NN1CCCC1)c1nn(-c2ccc(Cl)cc2Cl)c2c1CCCC2=Cc1ccc(Cl)s1 [compound 393] — 1.6-fold lower, 43 nM
- C[C@@H](NC(=O)c1nn(-c2ccc(Cl)cc2Cl)c2c1CCCC2=Cc1ccc(Br)o1)c1ccccc1 [compound 397] — within 1.5-fold, 59 nM
- C[C@@H](NC(=O)c1nn(-c2ccc(Cl)cc2Cl)c2c1CCC/C2=C\c1ccc(Br)o1)C1CCCCC1 [compound 398] — within 1.5-fold, 48 nM

Target: human CB2 receptor (Homo sapiens, UniProt P34972)
Test: Binding assay, cannabinoid CB2 receptor ([3H]-CP-55,940 displacement)
Details: Cannabinoid CB2 Receptor Binding IC50, human CB2 receptor, SK-N-MC cell membranes, radioligand CP-55,940 0.2 nM
Procedure: as §1, §2
On the day of the assay, the pellet was thawed on ice and diluted in assay buffer (50 mM Tris-HCl, 5 mM MgCl2, 2.5 mM EDTA, 0.5 mg/mL fatty acid free bovine serum albumin, pH 7.5). The diluted membrane was added with buffer, test compound or standard and the radioligand [H]^3+-CP-55,940_(0.2 nM) to the wells of a 96-well polypropylene plate. Non-specific binding was measured in wells containing 10 uM WIN 55,212. The plate was covered and incubated for 90 minutes at 30° C. The contents were then aspirated onto a Packard UNIFILTER GF/C filter bottom plate prewet with 0.5% polyethyleneimine. The wells of the polypropylene plate were rinsed and aspirated seven times with a 0.9% saline-0.5% TWEEN 20 solution. The UNIFILTER plate was dried, a scintillation cocktail was added to each well and the counts representing binding were quantitated in a TOPCOUNT scintillation counter.
as §3

Sequence of human CB2 receptor (P34972 whole entry): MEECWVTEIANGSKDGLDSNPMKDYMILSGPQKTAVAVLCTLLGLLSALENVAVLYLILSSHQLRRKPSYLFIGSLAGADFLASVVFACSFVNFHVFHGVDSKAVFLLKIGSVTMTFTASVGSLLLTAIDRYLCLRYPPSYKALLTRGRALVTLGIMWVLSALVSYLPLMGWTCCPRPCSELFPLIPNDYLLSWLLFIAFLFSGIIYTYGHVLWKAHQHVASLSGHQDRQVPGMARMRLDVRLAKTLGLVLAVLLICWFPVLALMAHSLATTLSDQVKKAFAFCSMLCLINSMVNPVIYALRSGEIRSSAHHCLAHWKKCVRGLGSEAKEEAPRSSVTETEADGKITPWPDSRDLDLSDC

Point of comparison: `COc1ccc(C(=O)CNC(=O)c2nn(C3CCCCC3)c3c2CCCC3)cc1` [Cpd 176], IC50 4000 nM. Against it:
- CC(C)(C)OC(=O)NC1CCc2c(c(C(=O)NC3C4(C)CCC(C4)C3(C)C)nn2C2CCCCC2)C1 (stereo not drawn) [Cpd 86, [1-cyclohexyl-3-(1,3,3-trimethyl-bicyclo[2.2.1]hept-2-ylcarbamoyl)-4,5,6,7-tetrahydro-1H-indazol-5-yl]-carbamic acid tert-butyl ester] — 15-fold lower, 275 nM
